Reference: patent publication US20050163737A1, “Deodorant cosmetic composition comprising a combination of zinc pidolate and an antiperspirant aluminum salt” (priority 2003, published 2005)

Experiments:
[1] = Deodorant efficacy test: odor intensity of incubated underarm sweat, expert panel; set-up: species or system human; conditions: 24 hours at 37° C, vs control sweat
Experimental: Protocol of the Deodorant Efficacy Test
Collections of underarm sweat were taken in a sauna from 6 volunteers; the samples of individual sweat, were stored in ice for a few hours, and were at this point virtually odorless. They were then mixed together and divided into 1 ml aliquots. The active agents were added to these aliquots, which were then incubated in an oven at 37° C. After incubation for 24 hours, a panel of experts evaluated the intensity of the odor in comparison with a control sample: 1 ml of sweat incubated without agent.
The results were expressed as a percentage of variation of the intensity of the odor in comparison with the control sweat sample (mean of the percentages of variation at T24h).

[2] = cited from earlier work

## Oc1cc(Cl)ccc1Oc1ccc(Cl)cc1Cl [(B), 2,4,4′-trichloro-2′-hydroxydiphenyl ether]
[1]; 0.4 mg AM/ml of sweat (total)
  % of Reduction in the Intensity of the Odor: −49%
[2]
  Solubility in water: insoluble

## aluminum chlorohydrate [ACH]
[1]; 0.1 mg AM/ml of sweat
  % of Reduction in the Intensity of the Odor: −37%
[1]; 0.2 mg AM/ml of sweat (total)
  % of Reduction in the Intensity of the Odor: −47%

## zinc pidolate [(A)]
[1]; 0.1 mg AM/ml of sweat
  % of Reduction in the Intensity of the Odor: −47%
[1]; 0.2 mg AM/ml of sweat (total)
  % of Reduction in the Intensity of the Odor: −47%

## zinc ricinoleate [(C)]
[1]; 0.3 mg AM/ml of sweat
  % of Reduction in the Intensity of the Odor: −4%
